Legend:
[1] = system: collagen-induced arthritis; experiment: Collagen-induced arthritis preventing effect; assay type: in vivo, mouse; conditions: mice, intraperitoneal 2 mg/kg or 4 mg/kg, 3 times/week, 18 times/6 weeks; FIGS. 2(A), 2(B)
Description: B) Collagen-induced Arthritis Preventing Effect
Type II collagen was emulsified together with an equivalent volume of Freund's complete adjuvant to prepare 1.5 mg/ml of administration solution. This was intradermally inoculated to the radicular portion of mouse tail in an amount of 0.1 ml (150 μg/mouse) to sensitize the mouse. After 3 weeks, 0.1 ml of type II collagen emulsified in the same operational manner as described was intraperitoneally administered to mouse (150 μg/mouse) to effect booster immunization to induce arthritis.
6 Animals/group of mice were intraperitoneally administered with DHM2EQ and DHM3EQ in a dosage of 2 mg/kg or 4 mg/kg 3 times/week from the day of initial immunization in a ratio of 0.1 ml/10 g of the bodyweight, in total 18 times/6 weeks. The control group (6 animals/group) was administered with 0.5% CMC solution in the same schedule as described above and to provide normal group (4 animals/group) in which no collagen arthritis was induced. The effect of inhibiting collagen-induced arthritis was evaluated by degrees of the flare, swelling and stiffening of anterior limb and posterior limb in scores of 0 to 4 (the maximum score of total for 4 limbs was 16).

NF-κB = NF-κB production inhibitory activity, luciferase reporter gene assay; assay type: cell-based; conditions: 3×κBTK-Luc reporter, 2 h preincubation, TNF-α (20 ng/ml) for 6 hours; FIGS. 1(A), 1(B)
Description: A) NF-κB Production Inhibitory Activity
The NF-κB production inhibitory activity was measured by luciferase reporter gene assay as shown below.
[Luciferase Reporter Gene Assay]
A reporter using luciferase DNA was prepared and the NF-κB production inhibitory activity was measured by use of promoter/reporter assay.
As the plasmid for luciferase assay, 3×κBTK-Luc (endowed by Dr. Junichiro INOUE of The Institute of Medical Science, The University of Tokyo) obtained by coupling luciferase gene derived from lampyrid to 3×κB derived from Igκ gene and HSV-TK promoter was used. Further, for the β-galactosidase assay, a plasmid obtained by coupling β-galactosidase gene to β-actin promoter (endowed by Dr. Junichiro INOUE of The Institute of Medical Science, The University of Tokyo) was used.
2) Transfection and Luciferase Assay
Transfection was performed by a DEAE-dextran method. […]
For 10 μl of the sample, 100 μl of a luminescent substrate solution (Tricine (20 mM), (MgCO3).4Mg(OH)2.5H2O (1.07 mM), MgSO4 (2.67 mM), EDTA (0.1 mM), DTT (33.3 mM), Coenzyme A (270 μM), luciferin (470 μM), and ATP (530 μM)) was added and amount of luminescence was quantitated by use of Lumat LB9501 (Berthold: Bad Wildbad, Germany). Further, the measured amounts were corrected by β-galactosidase assay to obtain the value of luciferase activity. […]

Structure (SMILES) | inhibition of collagen-induced arthritis (score of flare, swelling, stiffening of 4 limbs) [1] | concentration at which NF-κB activity was inhibited (NF-κB)
O=C(NC1=CC(=O)C2OC2C1O)c1ccccc1O (stereo not shown) [DHM2EQ, 5,6-epoxy-4-hydroxy-3-salicyloylamino-2-cyclohexenone] | inhibited collagen-induced arthritis | ≥ 1 µg/mL
O=C(NC1=CC(O)C2OC2C1=O)c1ccccc1O (stereo not shown) [DHM3EQ, 5,6-epoxy-4-hydroxy-2-salicyloylamino-2-cyclohexenone] | inhibited collagen-induced arthritis | 10 µg/mL

Source: US6566394B1, “Salicylamide derivatives” (Mercian Corporation, priority 1999, dated 2003)
